The values below come from patent publication US20230399342A1 (Incyte Corporation, priority 2022, published 2023).

One experiment deals with DGKα (Homo sapiens (Human), UniProt P23743). Put plainly: In vitro DGKα inhibition assay (ADP-Glo). It is filed as biochemical. The note with it: His-tagged human recombinant enzyme, 0.1 nM DGKα, 50 μM ATP, 20 μM DLG, 90 minute incubation. Put shortly: (§1)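 His-tagged human DGKα (0.1 nM, 50 μM ATP) or DGKζ (0.4 nM, 30 μM ATP), each with 20 μM DLG, in Tris pH 7.5 buffer with CHAPS, Mg2+, Ca2+.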
Chain of DGKα (P23743 whole entry): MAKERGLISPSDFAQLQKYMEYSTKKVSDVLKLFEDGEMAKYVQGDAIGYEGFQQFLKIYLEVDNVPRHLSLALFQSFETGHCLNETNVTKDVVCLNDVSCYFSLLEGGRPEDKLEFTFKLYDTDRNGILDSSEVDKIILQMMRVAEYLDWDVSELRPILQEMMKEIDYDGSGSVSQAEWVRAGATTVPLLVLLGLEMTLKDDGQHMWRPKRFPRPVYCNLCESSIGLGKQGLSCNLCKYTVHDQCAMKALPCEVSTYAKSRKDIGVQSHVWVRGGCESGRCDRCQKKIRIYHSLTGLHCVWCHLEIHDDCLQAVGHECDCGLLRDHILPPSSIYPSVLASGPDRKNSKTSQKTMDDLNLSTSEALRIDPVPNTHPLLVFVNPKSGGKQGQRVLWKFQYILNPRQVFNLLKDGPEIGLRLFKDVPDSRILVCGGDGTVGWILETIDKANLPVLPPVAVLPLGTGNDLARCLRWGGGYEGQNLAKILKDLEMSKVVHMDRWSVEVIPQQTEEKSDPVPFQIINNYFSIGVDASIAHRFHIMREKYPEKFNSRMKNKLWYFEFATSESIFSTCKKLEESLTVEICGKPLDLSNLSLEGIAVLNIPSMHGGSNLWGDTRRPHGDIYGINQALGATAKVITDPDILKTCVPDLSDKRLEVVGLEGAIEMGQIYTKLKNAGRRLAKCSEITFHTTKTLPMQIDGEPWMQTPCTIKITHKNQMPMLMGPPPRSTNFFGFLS
(In general: ADP-Glo first removes unused ATP, then detects ADP through luciferase.)

The next experiment concerns the target DGKζ (Homo sapiens (Human), UniProt Q13574). Put plainly: In vitro DGKζ inhibition assay (ADP-Glo). The experiment is classed as biochemical. The note with it: His-tagged human recombinant enzyme, 0.4 nM DGK, 30 μM ATP, 20 μM DLG, 90 minute incubation. Put shortly:
as §1

Structures are written as SMILES.

Chain of DGKζ (Q13574 whole entry): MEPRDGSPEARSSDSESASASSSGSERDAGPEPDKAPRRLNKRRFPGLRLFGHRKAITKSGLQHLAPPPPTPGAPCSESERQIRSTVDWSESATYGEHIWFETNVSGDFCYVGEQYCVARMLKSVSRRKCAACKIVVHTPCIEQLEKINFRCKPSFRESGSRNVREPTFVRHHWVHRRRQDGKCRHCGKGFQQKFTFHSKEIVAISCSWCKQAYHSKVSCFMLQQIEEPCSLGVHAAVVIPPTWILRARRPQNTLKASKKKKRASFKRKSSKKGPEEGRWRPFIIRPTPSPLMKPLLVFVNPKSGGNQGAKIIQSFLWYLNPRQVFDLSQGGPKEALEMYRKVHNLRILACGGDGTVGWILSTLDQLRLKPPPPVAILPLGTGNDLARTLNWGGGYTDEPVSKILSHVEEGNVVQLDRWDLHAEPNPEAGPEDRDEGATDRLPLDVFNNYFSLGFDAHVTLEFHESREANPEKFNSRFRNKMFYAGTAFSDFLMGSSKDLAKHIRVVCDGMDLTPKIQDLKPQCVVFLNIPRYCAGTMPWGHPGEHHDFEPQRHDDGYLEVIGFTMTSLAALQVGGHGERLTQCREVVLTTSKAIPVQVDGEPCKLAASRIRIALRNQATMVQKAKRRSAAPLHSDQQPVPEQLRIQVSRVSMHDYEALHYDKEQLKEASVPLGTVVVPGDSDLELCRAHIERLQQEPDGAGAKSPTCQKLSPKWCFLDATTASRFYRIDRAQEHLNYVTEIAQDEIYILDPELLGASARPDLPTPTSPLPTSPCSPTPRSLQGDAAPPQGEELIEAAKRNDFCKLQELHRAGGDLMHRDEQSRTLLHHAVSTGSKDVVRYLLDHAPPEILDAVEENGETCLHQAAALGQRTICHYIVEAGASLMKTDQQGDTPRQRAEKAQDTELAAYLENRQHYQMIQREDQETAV

As to `CC[C@@H]1CN(c2nc3nncn3c3c2nc(C)n3C[C@@H]2CCCO2)[C@@H](C)CN1[C@H](c1ccc(OC(F)(F)F)cc1)C(C)C` [Example 130, 4-((2S,5R)-5-ethyl-2-methyl-4-((S)-2-methyl-1-(4-(trifluoromethoxy)phenyl)propyl)piperazin-1-yl)-2-methyl-1-(((S)-tetrahydrofuran-2-yl)methyl)-1H-[1,2,4]triazolo[3,4-b]purine], the IC50 on DGKα and at DGKζ was at most 0.02 µM in each case.
In the case of `CC[C@@H]1CN(c2nc3nncn3c3c2nc(C)n3C[C@@H]2CCCO2)[C@@H](C)CN1[C@@H](c1ccc(OC(F)(F)F)cc1)C(C)C` [Example 131, 4-((2S,5R)-5-ethyl-2-methyl-4-((R)-2-methyl-1-(4-(trifluoromethoxy)phenyl)propyl)piperazin-1-yl)-2-methyl-1-(((S)-tetrahydrofuran-2-yl)methyl)-1H-[1,2,4]triazolo[3,4-b]purine], the 50% inhibitory concentration (IC50) at DGKα and on DGKζ was at most 0.02 µM each time.
As for `CC[C@@H]1CN(c2nc3nncn3c3c2nc(C)n3C[C@@H]2CCCO2)[C@@H](C)CN1C(c1ccc(F)cc1)c1ccc(C#N)cc1` (stereo partly drawn) [Example 132, 4-(((2R,5S)-2-Ethyl-5-methyl-4-(2-methyl-1-(((S)-tetrahydrofuran-2-yl)methyl)-1H-[1,2,4]triazolo[3,4-b]purin-4-yl)piperazin-1-yl)(4-fluorophenyl)methyl)benzonitrile], the concentration for half-maximal inhibition (IC50) at DGKα and at DGKζ was at most 0.02 µM throughout.
As for `CC[C@@H]1CN(c2nc3nncn3c3c2nc(C)n3C[C@@H]2CCCO2)[C@@H](C)CN1C(c1ccc(F)cc1)c1ccc(C#N)cc1` (stereo partly drawn) [Example 133, 4-(((2R,5S)-2-Ethyl-5-methyl-4-(2-methyl-1-(((S)-tetrahydrofuran-2-yl)methyl)-1H-[1,2,4]triazolo[3,4-b]purin-4-yl)piperazin-1-yl)(4-fluorophenyl)methyl)benzonitrile], the IC50 on DGKα and at DGKζ was at most 0.02 µM each time.
`Cc1nc2c(N3C[C@@H](C)N(C(c4ccc(C(F)(F)F)cc4)c4ccc(C(F)(F)F)cc4)C[C@@H]3C)nc3nncn3c2n1C[C@@H]1CCCO1` [Example 134, 4-((2S,5R)-4-(Bis(4-(trifluoromethyl)phenyl)methyl)-2,5-dimethylpiperazin-1-yl)-2-methyl-1-(((S)-tetrahydrofuran-2-yl)methyl)-1H-[1,2,4]triazolo[3,4-b]purine]: the IC50 at DGKα and at DGKζ was at most 0.02 µM in each case.
On to `Cc1nc2c(N3C[C@@H](C)N(C(c4ccc(C(F)F)c(F)c4)C4CC(F)(F)C4)C[C@@H]3C)nc3nncn3c2n1C[C@@H]1CCCO1` (stereo partly drawn) [Example 135, 4-((2S,5R)-4-((3,3-Difluorocyclobutyl)(4-(difluoromethyl)-3-fluorophenyl)methyl)-2,5-dimethylpiperazin-1-yl)-2-methyl-1-(((S)-tetrahydrofuran-2-yl)methyl)-1H-[1,2,4]triazolo[3,4-b]purine], for which the IC50 on DGKα and at DGKζ was at most 0.02 µM each time.
On to `C[C@@H]1CN(c2nc3nncn3c3c2ncn3CCN(C)C)[C@@H](C)CN1C(c1ccc(Cl)c(F)c1)C1CC(F)(F)C1` (stereo partly drawn) [Example 136, 2-(4-((2S,5R)-4-((4-Chloro-3-fluorophenyl)(3,3-difluorocyclobutyl)methyl)-2,5-dimethylpiperazin-1-yl)-1H-[1,2,4]triazolo[3,4-b]purin-1-yl)-N,N-dimethylethan-1-amine], for which the IC50 on DGKα and on DGKζ was at most 0.02 µM in each case.
In the case of `Cc1nc2c(N3C[C@@H](CO)N(C(c4ccc(Cl)cc4)c4ccc(Cl)cc4)C[C@@H]3C)nc3nncn3c2n1C[C@@H]1CCCO1` [Example 137, ((2S,5S)-1-(Bis(4-chlorophenyl)methyl)-5-methyl-4-(2-methyl-1-(((S)-tetrahydrofuran-2-yl)methyl)-1H-[1,2,4]triazolo[3,4-b]purin-4-yl)piperazin-2-yl)methanol], the IC50 at DGKα and at DGKζ was at most 0.02 µM throughout.
Take `Cc1nc2c(N3C[C@@H](C)N([C@H](c4ccc(Br)cc4)C(C)C)C[C@@H]3C)nc3nncn3c2n1C[C@@H]1CCCO1` [Example 138, 4-((2S,5R)-4-((S)-1-(4-Bromophenyl)-2-methylpropyl)-2,5-dimethylpiperazin-1-yl)-2-methyl-1-(((S)-tetrahydrofuran-2-yl)methyl)-1H-[1,2,4]triazolo[3,4-b]purine]: the IC50 on DGKα and at DGKζ was at most 0.02 µM throughout.
Consider `Cc1nc2c(N3C[C@@H](C)N([C@@H](c4ccc(Br)cc4)C(C)C)C[C@@H]3C)nc3nncn3c2n1C[C@@H]1CCCO1` [Example 139, 4-((2S,5R)-4-((R)-1-(4-bromophenyl)-2-methylpropyl)-2,5-dimethylpiperazin-1-yl)-2-methyl-1-(((S)-tetrahydrofuran-2-yl)methyl)-1H-[1,2,4]triazolo[3,4-b]purine], for which the half-maximal inhibitory concentration (IC50) at DGKα and on DGKζ was at most 0.02 µM throughout.
